Experimental data: PubChem BioAssay AID200 (DTP/NCI, 2004)
“And” between values parts separate entries of the source, which are not always exact repeats. Equal entries are not always repeated. Toxic doses and inconclusive results are not listed. Where a SMILES comes first, the peptide text is derived from it. The star is where a group is joined. Cbz = O=C(OCc1ccccc1)*; Bn = c1ccc(C*)cc1

System: B6C3F1 mice, B16 melanoma ip, median survival T/C
Assay: NCI In Vivo Anticancer Drug Screen. Data for tumor model B16 Melanoma (intraperitoneal) in B6C3F1 mice
Settings: endpoint: median survival time, schedule: Q01DX009 (ip), higher = longer survival
Protocol: The antitumor activity of compounds was measured in mice bearing transplantable tumors. Survival or tumor size were measured and the results are expressed as the measurement made in the treated group (T) divided by the measurement made in the vehicle treated control group (C). The tumor model used in this assay is B16 Melanoma (intraperitoneal) in B6C3F1 mice

[1] = dose: 12.5 mg/kg/injection, vehicle: Klucel (hydroxypropylcellulose) (HPC)
[2] = dose: 25.0 mg/kg/injection, vehicle: Klucel (hydroxypropylcellulose) (HPC)
[3] = dose: 50.0 mg/kg/injection, vehicle: Klucel (hydroxypropylcellulose) (HPC)
[4] = dose: 25.0 mg/kg/injection, vehicle: saline with Tween-80
[5] = dose: 50.0 mg/kg/injection, vehicle: saline with Tween-80
[6] = dose: 100.0 mg/kg/injection, vehicle: saline with Tween-80
[7] = dose: 400.0 mg/kg/injection, vehicle: saline with Tween-80
[8] = dose: 800.0 mg/kg/injection, vehicle: saline with Tween-80
[9] = dose: 6.25 mg/kg/injection, vehicle: other
[10] = dose: 12.5 mg/kg/injection, vehicle: other
[11] = dose: 25.0 mg/kg/injection, vehicle: other
[12] = dose: 100.0 mg/kg/injection, vehicle: Klucel (hydroxypropylcellulose) (HPC)
[13] = dose: 200.0 mg/kg/injection, vehicle: Klucel (hydroxypropylcellulose) (HPC)
[14] = dose: 200.0 mg/kg/injection, vehicle: saline with Tween-80
[15] = dose: 3.12 mg/kg/injection, vehicle: saline
[16] = dose: 6.25 mg/kg/injection, vehicle: saline with Tween-80
[17] = dose: 12.5 mg/kg/injection, vehicle: saline with Tween-80
[18] = dose: 12.5 mg/kg/injection, vehicle: saline
[19] = dose: 25.0 mg/kg/injection, vehicle: saline
[20] = dose: 50.0 mg/kg/injection, vehicle: saline
[21] = dose: 100.0 mg/kg/injection, vehicle: saline

COC1=C(C)C(=O)C2=C(C1=O)C1C3CC4=C(C(=O)C(OC)=C(C)C4=O)C(CNC(=O)C(C)=O)N3C(C#N)C(C2)N1C (centres undefined)
T/C (dose: 0.12 mg/kg/injection, vehicle: Klucel (hydroxypropylcellulose) (HPC)): 95 % of control
T/C (dose: 0.25 mg/kg/injection, vehicle: Klucel (hydroxypropylcellulose) (HPC)): 103 % of control and 106 % of control
T/C (dose: 0.5 mg/kg/injection, vehicle: Klucel (hydroxypropylcellulose) (HPC)): 99 % of control and 106 % of control
T/C (dose: 1.0 mg/kg/injection, vehicle: Klucel (hydroxypropylcellulose) (HPC)): 115 % of control and 103 % of control

COc1cc(C(=O)c2cc3c(cc2C)OCO3)cc(OC)c1OC
T/C (dose: 6.25 mg/kg/injection, vehicle: Klucel (hydroxypropylcellulose) (HPC)): 94 % of control
T/C [1]: 100 % of control
T/C [2]: 108 % of control
T/C [3]: 117 % of control and 106 % of control

CCOC(=O)Nc1cc2c(c(N)n1)N=C(c1ccccc1)CO2
T/C [4]: 112 % of control and 118 % of control
T/C [5]: 111 % of control and 118 % of control
T/C [6]: 115 % of control and 124 % of control
T/C (dose: 103.68 mg/kg/injection, vehicle: saline with Tween-80): 106 % of control
T/C [7]: 150 % of control and 198 % of control
T/C (dose: 480.0 mg/kg/injection, vehicle: saline with Tween-80): 165 % of control
T/C [8]: 172 % of control

COc1cc2cc(c1Cl)N1CC(=O)C(C)(O)C(=O)N(C)C(C)C(=O)OC(CC1=O)C1(C)OC1C(C)C1CC(O)(NC(=O)O1)C(OC)/C=C\C=C(\C)C2OC (centres undefined)
T/C (dose: 4.0 micrograms/kg/injection, vehicle: distilled water + alcohol): 109 % of control
T/C (dose: 8.0 micrograms/kg/injection, vehicle: distilled water + alcohol): 93 % of control
T/C (dose: 16.0 micrograms/kg/injection, vehicle: distilled water + alcohol): 111 % of control
T/C (dose: 32.0 micrograms/kg/injection, vehicle: distilled water + alcohol): 95 % of control

Cc1ccnc(NN=O)c1
T/C (dose: 3.12 mg/kg/injection, vehicle: water): 99 % of control
T/C (dose: 6.25 mg/kg/injection, vehicle: water): 100 % of control

Cc1ccc2c(c1)Sc1ccc(N=NN(C)C)cc1N2C
T/C [9]: 100 % of control
T/C [10]: 114 % of control
T/C [11]: 114 % of control
T/C (dose: 50.0 mg/kg/injection, vehicle: other): 115 % of control

CCOC(=O)CNC(=O)Sc1ccc(C(C)(C)C)cc1
T/C [1]: 100 % of control
T/C [2]: 100 % of control
T/C [3]: 102 % of control
T/C [12]: 105 % of control
T/C [13]: 115 % of control

CCSC(=O)N1c2ccc(OC)cc2C=CC1C#N (centres undefined)
T/C [5]: 121 % of control and 95 % of control
T/C [6]: 124 % of control and 107 % of control
T/C [14]: 110 % of control

C=C[Si]12OCCN(CCO1)CCO2
T/C [1]: 112 % of control and 96 % of control
T/C [2]: 95 % of control and 99 % of control
T/C [3]: 101 % of control
T/C [12]: 111 % of control and 95 % of control
T/C [13]: 93 % of control and 104 % of control

CC[C@@H](C)[C@H]([C@H](CC(=O)N1CCC[C@@H]1[C@@H](OC)[C@H](C)C(=O)N[C@H](Cc1ccccc1)c1nccs1)OC)N(C)C(=O)[C@H](NC(=O)[C@@H](C(C)C)N(C)C)C(C)C
T/C (dose: 2.4 micrograms/kg/injection, vehicle: saline + alcohol): 171 % of control
T/C (dose: 4.0 micrograms/kg/injection, vehicle: saline + alcohol): 205 % of control
T/C (dose: 6.67 micrograms/kg/injection, vehicle: saline + alcohol): 182 % of control
T/C (dose: 11.11 micrograms/kg/injection, vehicle: saline + alcohol): 238 % of control

CCCCC(NC(=O)CNC(=O)OCc1ccccc1)C(=O)O (centres undefined)
T/C [12]: 92 % of control
T/C [13]: 96 % of control
T/C (dose: 400.0 mg/kg/injection, vehicle: Klucel (hydroxypropylcellulose) (HPC)): 92 % of control

O=c1n(CC2CO2)c(=O)n(CC2CO2)c(=O)n1CC1CO1 (centres undefined)
T/C [15]: 121 % of control
T/C (dose: 5.0 mg/kg/injection, vehicle: saline): 155 % of control
T/C [16]: 171 % of control
T/C (dose: 6.25 mg/kg/injection, vehicle: suspension in saline): 178 % of control and 152 % of control
T/C (dose: 10.0 mg/kg/injection, vehicle: saline): 186 % of control
T/C [17]: 212 % of control and 153 % of control
T/C [18]: 188 % of control
T/C (dose: 12.5 mg/kg/injection, vehicle: suspension in saline): 211 % of control and 172 % of control
T/C (dose: 20.0 mg/kg/injection, vehicle: saline): 228 % of control
T/C [4]: 263 % of control and 197 % of control
T/C [19]: 205 % of control and 227 % of control and 170 % of control
T/C (dose: 25.0 mg/kg/injection, vehicle: suspension in saline): 282 % of control and 235 % of control
T/C (dose: 40.0 mg/kg/injection, vehicle: saline): 261 % of control
T/C [5]: 233 % of control
T/C [20]: 234 % of control and 172 % of control
T/C (dose: 50.0 mg/kg/injection, vehicle: suspension in saline): 255 % of control
T/C [21]: 191 % of control

CCCn1cc2c3c(cccc31)C1C=C(C)CN(C)C1C2 (centres undefined)
T/C [9]: 118 % of control
T/C [10]: 306 % of control
T/C [11]: 91 % of control

O=C(Nc1ccc(C2=NCCCN2)cc1)c1ccc(C(=O)Nc2ccc(C3=NCCCN3)cc2)nc1
T/C (dose: 0.31 mg/kg/injection, vehicle: saline with Tween-80): 100 % of control
T/C (dose: 0.62 mg/kg/injection, vehicle: saline with Tween-80): 106 % of control
T/C (dose: 1.25 mg/kg/injection, vehicle: saline with Tween-80): 105 % of control
T/C (dose: 2.5 mg/kg/injection, vehicle: saline with Tween-80): 100 % of control
T/C (dose: 5.0 mg/kg/injection, vehicle: saline with Tween-80): 100 % of control

Cc1oc2c(C)c3oc(=O)cc(C)c3cc2c1CCl
T/C [17]: 91 % of control and 97 % of control
T/C [4]: 87 % of control and 88 % of control (2×)
T/C [5]: 102 % of control

C[C@H](CCC[C@H](C)OS(=O)(=O)c1ccccc1)OS(=O)(=O)c1ccccc1
T/C [17]: 122 % of control and 101 % of control
T/C [4]: 207 % of control and 97 % of control
T/C [7]: 194 % of control

CC(C)CC(NC(=O)C(CSCc1ccccc1)NC(=O)OCc1ccccc1)C(N)=O (centres undefined) (Cbz-Cys(Bn)-Leu-NH2; configuration not given here)
T/C [1]: 107 % of control
T/C [2]: 98 % of control
T/C [3]: 100 % of control

COC(=O)C(F)C(Br)C(=O)OC (centres undefined)
T/C (dose: 3.13 mg/kg/injection, vehicle: saline with Tween-80): 98 % of control
T/C [16]: 91 % of control
T/C [17]: 93 % of control
T/C [4]: 93 % of control
T/C [5]: 90 % of control

NC(=O)CC(N)C(=O)O (centres undefined)
T/C [5]: 108 % of control
T/C [6]: 100 % of control
T/C [14]: 100 % of control
T/C [7]: 105 % of control
T/C [8]: 120 % of control
T/C (dose: 1600.0 mg/kg/injection, vehicle: saline with Tween-80): 118 % of control

O=C(O)CCC(NC(=O)c1ccccc1)C(=O)O (centres undefined)
T/C [5]: 93 % of control
T/C [6]: 106 % of control

Nc1ncnc2c1ncn2C1OC(CO)C(O)C1O (centres undefined)
T/C (dose: 1.56 mg/kg/injection, vehicle: saline): 94 % of control
T/C [15]: 94 % of control
T/C (dose: 6.25 mg/kg/injection, vehicle: saline): 96 % of control
T/C [18]: 107 % of control
T/C [19]: 63 % of control
T/C [20]: 45 % of control
T/C [21]: 37 % of control

O=c1[nH]c(=O)c2nc(-c3cccnc3)cnc2[nH]1
T/C [18]: 92 % of control
T/C [19]: 98 % of control
T/C [20]: 95 % of control
T/C [21]: 92 % of control

C=C(C)C(=NC(C)(C)C)Nc1ccccc1
T/C [16]: 98 % of control
T/C [17]: 122 % of control
T/C [4]: 109 % of control
T/C [5]: 91 % of control
T/C [6]: 96 % of control
T/C [14]: 114 % of control
